Source: ChEMBL document CHEMBL3046343, “Responses of the cabbage seedpod weevil, Ceutorhynchus obstrictus (Marsham) (Coleoptera: Curculionidae), to seed treatments of canola (Brassica napus L.) with the neonicotinoid compounds clothianidin and imidacloprid” (2009)
Active and inactive are the calls of the source. The calls are words filed in the database; no cut-off is given here.

Legend:
[1] = test system: Ceutorhynchus obstrictus; experiment: Inhibition of Ceutorhynchus obstrictus preimaginal development in Brassica napus L. Ryder pods of plant developed from compound treated seeds assessed as decrease in number of second-instar larvae at 600 g/L FS by microscopic analysis; type: functional, organism-based
[2] = test system: Ceutorhynchus obstrictus; experiment: Effect on Ceutorhynchus obstrictus oviposition in Brassica napus L. Ryder pods of plant developed from compound treated seeds assessed as number of eggs deposited at 600 g/L FS by microscopic analysis; type: functional, organism-based
[3] = test system: Ceutorhynchus obstrictus; experiment: Inhibition of emergence of new-generation Ceutorhynchus obstrictus adults from soil harboring Brassica napus L. Ryder plant developed from compound treated seeds at 600 g/L FS measured for 5 weeks relative to lindane; type: functional
[4] = test system: Contarinia nasturtii; experiment: Inhibition of Contarinia nasturtii larval development in Brassica oleracea L. var italica plant developed from compound pretreated seeds at 4.5 g AI per 100 g seed measured at 4-5 weeks after planting; type: functional; parameters: scale not given: the % may be the effect or the level left
[5] = test system: Ceutorhynchus obstrictus; experiment: Inhibition of Ceutorhynchus obstrictus preimaginal development in Brassica napus L. Ryder pods of plant developed from compound treated seeds assessed as decrease in number of third-instar larvae at 600 g/L FS by microscopic analysis; type: functional, organism-based
[6] = test system: Ceutorhynchus obstrictus; experiment: Inhibition of Ceutorhynchus obstrictus preimaginal development in Brassica napus L. Ryder pods of plant developed from compound treated seeds assessed as decrease in number of exit holes formed per pod by third-instar larvae at 600 g/L FS; type: functional, organism-based
[7] = test system: Ceutorhynchus obstrictus; experiment: Inhibition of Ceutorhynchus obstrictus preimaginal development in Brassica napus L. Ryder pods of plant developed from compound treated seeds assessed as effect on number of first-instar larvae at 600 g/L FS by microscopic analysis; type: functional, organism-based
[8] = test system: Ceutorhynchus obstrictus; experiment: Effect on Ceutorhynchus obstrictus oviposition in Brassica napus L. Ryder pods of plant developed from compound treated seeds assessed as number of eggs deposited at 1351 g per 100 kg seeds by microscopic analysis; type: functional, organism-based
[9] = test system: Ceutorhynchus obstrictus; experiment: Inhibition of Ceutorhynchus obstrictus preimaginal development in Brassica napus L. Ryder pods of plant developed from compound treated seeds assessed as effect on number of first-instar larvae at 1351 g per 100 kg seeds by microscopic analysis; type: functional, organism-based
[10] = test system: Ceutorhynchus obstrictus; experiment: Ratio of compound to clothianidin for exit holes formed in Brassica napus L. Ryder pods by Ceutorhynchus obstrictus larvae; type: functional
[11] = test system: Ceutorhynchus obstrictus; experiment: Ratio of compound to imidacloprid for exit holes formed in Brassica napus L. Ryder pod by […] larvae of Ceutorhynchus obstrictus; type: functional
[12] = test system: Ceutorhynchus obstrictus; experiment: Inhibition of Ceutorhynchus obstrictus development in canola pods of plant developed from compound treated seeds assessed as decrease in number of exit holes formed by larvae at 0.38 kg AI per 45.36 kg seeds relative to untreated control; type: functional
[13] = test system: Ceutorhynchus obstrictus; experiment: Inhibition of Ceutorhynchus obstrictus development in canola pods of plant developed from compound treated seeds assessed as decrease in number of exit holes formed by larvae at 0.30 kg AI per 45.36 kg seeds; type: functional
[14] = test system: Ceutorhynchus obstrictus; experiment: Effect on Ceutorhynchus obstrictus oviposition in Brassica napus L. Ryder pods of plant developed from compound treated seeds assessed as number of eggs deposited at 800 g/L FS by microscopic analysis; type: functional, organism-based
[15] = test system: Ceutorhynchus obstrictus; experiment: Inhibition of Ceutorhynchus obstrictus preimaginal development in Brassica napus L. Ryder pods of plant developed from compound treated seeds assessed as decrease in number of third-instar larvae at 800 g/L FS by microscopic analysis; type: functional, organism-based
[16] = test system: Ceutorhynchus obstrictus; experiment: Inhibition of Ceutorhynchus obstrictus development in canola pods of plant developed from compound treated seeds assessed as decrease in number of exit holes formed by larvae at 0.30 kg AI per 45.36 kg seeds relative to untreated control; type: functional
[17] = test system: Ceutorhynchus obstrictus; experiment: Inhibition of Ceutorhynchus obstrictus development in canola pods of plant developed from compound treated seeds assessed as decrease in number of exit holes formed by larvae at 0.38 kg AI per 45.36 kg seeds; type: functional
[18] = test system: Ceutorhynchus obstrictus; experiment: Inhibition of emergence of new-generation Ceutorhynchus obstrictus adults from soil harboring Brassica napus L. Ryder plant developed from compound treated seeds at 800 g/L FS measured for 5 weeks relative to lindane; type: functional
[19] = test system: Ceutorhynchus obstrictus; experiment: Inhibition of Ceutorhynchus obstrictus preimaginal development in Brassica napus L. Ryder pods of plant developed from compound treated seeds assessed as decrease in number of second-instar larvae at 800 g/L FS by microscopic analysis; type: functional, organism-based
[20] = test system: Ceutorhynchus obstrictus; experiment: Inhibition of Ceutorhynchus obstrictus development in canola pods of plant developed from compound treated seeds assessed as decrease in number of exit holes formed by larvae at 0.28 kg AI per 45.36 kg seeds relative to untreated control; type: functional
[21] = test system: Ceutorhynchus obstrictus; experiment: Inhibition of Ceutorhynchus obstrictus development in canola pods of plant developed from compound treated seeds assessed as decrease in number of exit holes formed by larvae at 0.23 kg AI per 45.36 kg seeds; type: functional
[22] = test system: Ceutorhynchus obstrictus; experiment: Inhibition of Ceutorhynchus obstrictus development in canola pods of plant developed from compound treated seeds assessed as decrease in number of exit holes formed by larvae at 0.45 kg AI per 45.36 kg seeds relative to untreated control; type: functional
[23] = test system: Ceutorhynchus obstrictus; experiment: Inhibition of Ceutorhynchus obstrictus preimaginal development in Brassica napus L. Ryder pods of plant developed from compound treated seeds assessed as effect on number of first-instar larvae at 800 g/L FS by microscopic analysis; type: functional, organism-based
[24] = test system: Ceutorhynchus obstrictus; experiment: Inhibition of Ceutorhynchus obstrictus development in canola pods of plant developed from compound treated seeds assessed as decrease in number of exit holes formed by larvae at 0.23 kg AI per 45.36 kg seeds relative to untreated control; type: functional
[25] = test system: Ceutorhynchus obstrictus; experiment: Inhibition of Ceutorhynchus obstrictus development in canola pods of plant developed from compound treated seeds assessed as decrease in number of exit holes formed by larvae at 0.45 kg AI per 45.36 kg seeds; type: functional
[26] = test system: Ceutorhynchus obstrictus; experiment: Inhibition of Ceutorhynchus obstrictus development in canola pods of plant developed from compound treated seeds assessed as decrease in number of exit holes formed by larvae at 0.28 kg AI per 45.36 kg seeds; type: functional
[27] = test system: Ceutorhynchus obstrictus; experiment: Inhibition of Ceutorhynchus obstrictus preimaginal development in Brassica napus L. Ryder pods of plant developed from compound treated seeds assessed as decrease in number of exit holes formed per pod by larvae at 800 g/L FS; type: functional, organism-based

## CN/C(=N\[N+](=O)[O-])NCc1cnc(Cl)s1 [CLOTHIANIDINE]
[1]
  inhibition: Active
[2]
  Activity: inactive
[3]
  inhibition (INH): 52.2%
[4]
  Activity: 100%
[5]
  inhibition: Active
[6]
  inhibition: Active
[7]
  inhibition: inactive

## Cl[C@H]1[C@H](Cl)[C@@H](Cl)[C@@H](Cl)[C@H](Cl)[C@H]1Cl [LINDANE]
[8]
  Activity: inactive
[9]
  inhibition: inactive
[10]
  fold change (FC): 2.5
[11]
  fold change (FC): 2

## O=[N+]([O-])/N=C1\NCCN1Cc1ccc(Cl)nc1 [IMIDACLOPRID]
[12]
  fold change (FC): 2
[13]
  inhibition (INH): 96%
[14]
  Activity: inactive
[15]
  inhibition: Active
[16]
  fold change (FC): 2.1
[17]
  inhibition (INH): 98%
[18]
  inhibition (INH): 39.4%
[19]
  inhibition: Active
[20]
  fold change (FC): 2.2
[21]
  inhibition (INH): 88%
[22]
  fold change (FC): 2.4
[23]
  inhibition: inactive
[4]
  Activity: 100%
[24]
  fold change (FC): 1.9
[25]
  inhibition (INH): 100%
[26]
  inhibition (INH): 100%
[27]
  inhibition: Active
